Data: patent US20120283207A1, “ANTIBACTERIAL AMINOGLYCOSIDE ANALOGS” (Achaogen, Inc., priority 2009, published 2012)
In brackets after ≈: the same amount, converted by molar mass.

What was measured:
[1] = system: E. coli ATCC 25922; experiment: MIC assay, CLSI broth microdilution, AECO001; format: cell-based; settings: Escherichia coli; AECO001 is ATCC25922; Mueller Hinton Broth, 35 C, 20 hours
Method: (§1) Minimum inhibitory concentrations (MIC) were determined by reference Clinical and Laboratory Standards Institute (CLSI) broth microdilution methods per M7-A7 [2006]. Quality control ranges utilizing E. coli ATCC 25922, P. aeruginosa ATCC 27853 and S. aureus ATCC 29213, and interpretive criteria for comparator agents were as published in CLSI M100-S17 [2007]. Briefly, serial two-fold dilutions of the test compounds were prepared at 2× concentration in Mueller Hinton Broth. The compound dilutions were mixed in 96-well assay plates in a 1:1 ratio with bacterial inoculum. The inoculum was prepared by suspension of a colony from an agar plate that was prepared the previous day. Bacteria were suspended in sterile saline and added to each assay plate to obtain a final concentration of 5×10^5 CFU/mL. The plates were incubated at 35 C for 20 hours in ambient air.

[2] = system: P. aeruginosa ATCC 27853; experiment: MIC assay, CLSI broth microdilution, APAE001; format: cell-based; settings: Pseudomonas aeruginosa; APAE001 is ATCC27853; Mueller Hinton Broth, 35 C, 20 hours
Method: as §1

Row | Compound | MIC [1] | MIC [2]
1 | NCC1O[C@H](O[C@H]2[C@@H](O)[C@H](O[C@@H]3[C@@H](O)[C@H](N)C[C@H](N)[C@H]3O[C@H]3OC(CO)=CC[C@H]3N)O[C@@H]2CO)[C@H](N)[C@@H](O)[C@@H]1O (stereo partly shown) [2/3, 4′,5′-dehydro-3′-deoxy-paromomycin] | > 16 µg/mL | > 16 µg/mL
2 | CNCC1=C[C@H](O)[C@@H](N)[C@@H](O[C@H]2[C@H](O[C@@H]3O[C@H](CO)[C@@H](O[C@H]4OC(CN)[C@@H](O)[C@H](O)[C@H]4N)[C@H]3O)[C@@H](O)[C@H](N)C[C@@H]2N)O1 (stereo partly shown) [3/3, 6′-N-methyl-4′,5′-dehydro-neomycin] | 1 to 16 µg/mL (≈ 1.64 to 26.2 µM) | ≤ 1 µg/mL
3 | NCC[C@H](O)C(=O)N[C@@H]1C[C@H](N)[C@@H](O[C@H]2OC(CN)=CC[C@H]2N)[C@H](O[C@@H]2O[C@H](CO)[C@@H](O[C@H]3O[C@@H](CN)[C@@H](O)[C@H](O)[C@H]3N)[C@H]2O)[C@H]1O [5/6, 1-(2(S)-hydroxy-4-amino-butyryl)-4′,5′-dehydro-3′-deoxy-neomycin] | ≤ 1 µg/mL | ≤ 1 µg/mL
4 | NCC1=CC[C@@H](N)[C@@H](O[C@H]2[C@H](O[C@@H]3O[C@H](CO)[C@@H](O[C@H]4OC(CN)[C@@H](O)[C@H](O)[C@H]4N)[C@H]3O)[C@@H](O)[C@H](N)C[C@@H]2N)O1 (stereo partly shown) [1/10, 4′,5′-dehydro-3′-deoxy-neomycin] | 1 to 16 µg/mL (≈ 1.72 to 27.6 µM) | ≤ 1 µg/mL
5 | CNCC1=CC[C@@H](N)[C@@H](O[C@H]2[C@H](O[C@@H]3O[C@H](CO)[C@@H](O[C@H]4OC(CN)[C@@H](O)[C@H](O)[C@H]4N)[C@H]3O)[C@@H](O)[C@H](N)C[C@@H]2N)O1 (stereo partly shown) [4/3, 6′-N-methyl-4′,5′-dehydro-3′-deoxy-neomycin] | 1 to 16 µg/mL (≈ 1.68 to 26.9 µM) | 1 to 16 µg/mL (≈ 1.68 to 26.9 µM)
